The subject of one series is Oncorhynchus mykiss. To be noted: chronic/long-term; duration: 28 days; growth.
Another series deals with Bibionidae. To be noted: chronic/long-term; duration: 28 days.
The subject of another series is Mus musculus. The conditions noted are these: chronic; duration: 18 months; histopathology: nonneoplastic.
The subject of a further series is Daphnia magna. The conditions noted are these: chronic/long-term; duration: 21 days.
In a further series the test system is Apis mellifera. The conditions noted are these: acute; duration: 48 hours; oral; unspecified; mortality.
In the next series the test system is Colinus virginianus. The conditions noted are these: acute, oral, mortality.
Another series has as its system Anas platyrhynchos. The conditions noted are these: oral, mortality.
A further series relates to Lepomis macrochirus. The conditions noted are these: acute; duration: 96 hours; mortality.
A further series has as its system Tagia sp. The conditions noted are these: acute; duration: 14 days; mortality.
Another series relates to Aphidius rhopalosiphi. The series is described as follows: LR50; higher = less toxic. The conditions noted are these: not reported; mortality.

For orientation: NOAEL means the highest tested level that showed no adverse finding. In general, LOAEL refers to the lowest dose or exposure tested at which an adverse effect was seen. Regarding `O=C(NC(=O)c1c(F)cccc1F)Nc1cc(Cl)c(F)c(Cl)c1F` [Teflubenzuron], the NOEC in the series with Oncorhynchus mykiss is 0.0186 mg/L; in the series on Bibionidae it was 0.05 mg/kg; in the series on Daphnia magna, 6.2e-05 mg/L. For the same molecule, the LD50 is greater than 5000 mg/kg-day with Rattus norvegicus (acute, oral, mortality); greater than 72 µg/piece with Apis mellifera; greater than 1010 mg/kg-day in the series on Colinus virginianus (diet); greater than 2250 mg/kg-day with Colinus virginianus; greater than 2000 mg/kg-day with Anas platyrhynchos (acute, unspecified); greater than 1210 mg/kg-day in the series with Anas platyrhynchos (short-term, feed). In addition, the NOAEL in the series on Rattus norvegicus (chronic) was 40 mg/kg-day; with Rattus norvegicus (subchronic, duration: 90 days, oral, clinical chemistry), 8 mg/kg-day. The molecule also yielded an LOAEL in the series with Mus musculus of 2.1 mg/kg-day. Besides, the LC50 is greater than 6.5 ng/mL in the series on Lepomis macrochirus and greater than 1000 mg/kg in the series on Tagia sp.. Moreover, the LR50 in the series with Aphidius rhopalosiphi is greater than 180 g/ha.
